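Cells were grown in 96-well plates and exposed to each compound for 48 hours at five concentrations; endpoints were interpolated linearly between bracketing concentrations, or set to the highest concentration if not reached. Abbreviation: GI50, concentration required for 50% inhibition of growth.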 Calls of active or inactive are those of the source. Cut-off read from the data, not from the text of the source: active = GI50 up to about 1.1 µM and inactive = higher.
Key:
Test in all cases: inhibition of tumour cell growth, NCI panel, 48 h
A498 = test system: A498
A549 = test system: A549
BT-549 = test system: BT-549
CCRF-CEM = test system: CCRF-CEM
HCT-116 = test system: HCT-116
HOP-62 = test system: HOP-62
IGROV-1 = test system: IGROV-1
M14 = test system: M14
MDA-MB-435 = test system: MDA-MB-435
MDA-N = test system: MDA-N
NCI-H23 = test system: NCI-H23
NCI-H460 = test system: NCI-H460
NCI-H522 = test system: NCI-H522
OVCAR-5 = test system: OVCAR-5
SK-MEL-28 = test system: SK-MEL-28
SK-MEL-5 = test system: SK-MEL-5
SK-OV-3 = test system: SK-OV-3
SNB-19 = test system: SNB-19
T47D = test system: T47D

Measured: GI50

NC(CSCc1ccc(I)cc1)C(=O)O (centres undefined)
inactive: A498 > 100 µM | A549 > 100 µM | BT-549 > 100 µM | CCRF-CEM > 100 µM | HCT-116 > 100 µM | HOP-62 > 100 µM | IGROV-1 > 100 µM | M14 > 100 µM | MDA-MB-435 > 100 µM | MDA-N > 100 µM | NCI-H23 > 100 µM | NCI-H460 > 100 µM | NCI-H522 > 100 µM | OVCAR-5 > 100 µM | SK-MEL-28 > 100 µM | SK-MEL-5 > 100 µM | SK-OV-3 > 100 µM | SNB-19 > 100 µM | T47D > 100 µM

Cc1ccsc1C(=O)C(CC(=O)c1cccs1)c1ccsc1 (centres undefined)
inactive: A498 > 100 µM | A549 > 100 µM | BT-549 66.5 µM | CCRF-CEM > 100 µM | HCT-116 16.1 µM | HOP-62 > 100 µM | IGROV-1 > 100 µM | M14 > 100 µM | MDA-MB-435 > 100 µM | MDA-N 64.6 µM | NCI-H23 > 100 µM | NCI-H460 33.5 µM | NCI-H522 > 100 µM | OVCAR-5 > 100 µM | SK-MEL-28 > 100 µM | SK-MEL-5 28.2 µM | SK-OV-3 > 100 µM | SNB-19 > 100 µM | T47D 14.5 µM

CCc1nn(CN2CCN(C)CC2)c(=S)n1/N=C\c1ccc(-c2ccc([N+](=O)[O-])cc2)o1
inactive: A498 26 µM | A549 36.2 µM | BT-549 37 µM | CCRF-CEM 22.5 µM | HCT-116 58.5 µM | HOP-62 28.4 µM | IGROV-1 89.9 µM | M14 80.4 µM | MDA-MB-435 66.1 µM | MDA-N 94 µM | NCI-H23 34.9 µM | NCI-H460 57.4 µM | NCI-H522 51.5 µM | OVCAR-5 > 100 µM | SK-MEL-5 40.5 µM | SK-OV-3 40.7 µM | SNB-19 33.7 µM | T47D 19.9 µM

CO/C=C/C=C(\C#N)C(=O)OC
inactive: A498 > 100 µM | A549 > 100 µM | BT-549 > 100 µM | CCRF-CEM 26.3 µM | HCT-116 > 100 µM | HOP-62 > 100 µM | IGROV-1 > 100 µM | MDA-MB-435 > 100 µM | MDA-N > 100 µM | NCI-H23 > 100 µM | NCI-H460 > 100 µM | NCI-H522 > 100 µM | OVCAR-5 > 100 µM | SK-MEL-28 > 100 µM | SK-MEL-5 > 100 µM | SK-OV-3 > 100 µM | SNB-19 > 100 µM | T47D > 100 µM

Cc1nc(-n2[nH]c(C)c(CCO)c2=O)[nH]c(=O)c1CCO
inactive: A498 93.1 µM | A549 > 100 µM | BT-549 > 100 µM | CCRF-CEM > 100 µM | HCT-116 > 100 µM | HOP-62 > 100 µM | IGROV-1 > 100 µM | M14 > 100 µM | MDA-MB-435 > 100 µM | MDA-N > 100 µM | NCI-H23 > 100 µM | NCI-H460 > 100 µM | NCI-H522 > 100 µM | OVCAR-5 > 10 µM | SK-MEL-28 > 100 µM | SK-MEL-5 > 100 µM | SK-OV-3 > 100 µM | SNB-19 > 100 µM | T47D > 100 µM

Clc1nc(-c2ccccc2)nc(Cl)c1Cl
inactive: A498 17.6 µM | A549 15.4 µM | BT-549 20.6 µM | CCRF-CEM 2.54 µM | HCT-116 5.6 µM | HOP-62 18 µM | IGROV-1 8.69 µM | M14 7.14 µM | MDA-MB-435 12.9 µM | MDA-N 13 µM | NCI-H23 14.7 µM | NCI-H460 18.7 µM | NCI-H522 3.21 µM | OVCAR-5 15.8 µM | SK-MEL-28 16.8 µM | SK-MEL-5 13.4 µM | SK-OV-3 14 µM | SNB-19 17.1 µM | T47D 10 µM

COc1ccc(OC)c(N2C(=O)/C(=C\c3ccccc3)SC2c2cc(OC)c(OC)c(OC)c2)c1 (centres undefined)
inactive: A498 51.5 µM | A549 > 85.7 µM | BT-549 68.4 µM | CCRF-CEM 49.5 µM | HCT-116 > 100 µM | HOP-62 > 100 µM | IGROV-1 29.8 µM | M14 > 100 µM | MDA-MB-435 26.5 µM | MDA-N 22 µM | NCI-H23 > 80.5 µM | NCI-H522 30.9 µM | OVCAR-5 > 93.3 µM | SK-MEL-28 > 100 µM | SK-MEL-5 > 91.6 µM | SK-OV-3 > 100 µM | SNB-19 > 100 µM | T47D 12.4 µM

CC(C)(C)c1ccc(-c2nc3ccc(Cl)cc3c(=O)o2)cc1
inactive: A498 23.4 µM | A549 11.9 µM | BT-549 21.2 µM | CCRF-CEM 14.8 µM | HCT-116 15.6 µM | HOP-62 20.9 µM | IGROV-1 18.2 µM | M14 17.9 µM | MDA-MB-435 24.1 µM | MDA-N 25.2 µM | NCI-H23 11.4 µM | NCI-H460 26.2 µM | NCI-H522 12.7 µM | OVCAR-5 25.1 µM | SK-MEL-28 21.3 µM | SK-MEL-5 12.8 µM | SK-OV-3 18.4 µM | SNB-19 14.5 µM | T47D 20.5 µM

— ChEMBL document CHEMBL1201862, “PubChem BioAssay data set” (2004)
